Experimental data from patent US8486951B2 (Deciphera Pharmaceuticals, LLC, priority 2008, dated 2013).
Like-named read-outs stand apart in the source and are kept apart here.

Legend:
PDGFRβ = target: T1, PDGFRβ (Homo sapiens, UniProt P09619); assay: PDGFRβ Kinase Assay; type: biochemical; conditions: read-out: PDGFRb Enzyme Assay
T1 construct: purchased Invitrogen

M-NFS-60 cells = assay: M-NFS-60 Cell Proliferation Assay (resazurin); type: cell-based; conditions: 67 h + 5 h resazurin
Description: Cells were allowed to expand until reaching saturation at which point they were subcultured or harvested for assay use.
M-NFS-60 Cell Proliferation Assay
(§1) A serial dilution of test compound was dispensed into a 384-well black clear bottom plate (Corning, Corning, N.Y.). Two thousand five hundred cells were added per well in 50 μL complete growth medium. Plates were incubated for 67 hours at 37 degrees Celsius, 5% CO2, and 95% humidity. […] Data was analyzed using Prism software (Graphpad, San Diego, Calif.) to calculate IC50 values.

[1] = target: KDR kinase (Seq ID No. 3) (Homo sapiens, UniProt P35968, DEL940-989/E990V); assay: KDR Kinase Assay (assays K1, K2, K3); type: biochemical; conditions: assay variant K1, K2 or K3 not stated; read-out: KDR Enzyme Assay
PDGFRα kinase = target: T2, PDGFRα kinase (Homo sapiens, UniProt P16234); assay: PDGFRα Kinase Assay; type: biochemical; conditions: read-out: PDGFRa Enzyme Assay
T2 construct: purchased Invitrogen
Description: (§2) Activity of PDGFRα kinase was determined by following the production of ADP from the kinase reaction through coupling with the pyruvate kinase/lactate dehydrogenase system. In this assay, the oxidation of NADH (thus the decrease at A340 nm) was continuously monitored spectrophometrically. The reaction mixture (100 μl) contained PDGFRα (Invitrogen, 10 nM), polyE4Y (1 mg/ml), MgCl2 (10 mM), pyruvate kinase (4 units), lactate dehydrogenase (0.7 units), phosphoenol pyruvate (1 mM) and NADH (0.28 mM) and ATP (500 μM) in a 90 mM Tris buffer containing 0.2% octyl-glucoside and 1% DMSO, pH 7.5. The inhibition reaction was started by mixing serial diluted test compound with the above reaction mixture. The absorption at 340 nm was monitored continuously for 4 hours at 30° C. on a Polarstar Optima or Synergy 2 plate reader. The reaction rate was calculated using the 2 to 3 h time frame. Percent inhibition was obtained by comparison of reaction rate with that of a control (i.e. with no test compound). IC50 values were calculated from a series of percent inhibition values determined at a range of inhibitor concentrations using software routines as implemented in the GraphPad Prism software package.

FMS kinase = target: T3, FMS kinase (Homo sapiens, UniProt P07333); assay: FMS Kinase Assay; type: biochemical; conditions: read-out: FMS Enzyme Assay
T3 construct: purchased Invitrogen or Millipore
Description: as §2, with “In” for “Activity of PDGFRα kinase was determined by following the production of ADP from the kinase reaction through coupling with the pyruvate kinase/lactate dehydrogenase system. In”, “FMS (purchased from Invitrogen or Millipore, 6” for “PDGFRα (Invitrogen, 10”

[2] = target: T4, c-MET kinase (Seq. ID no. 2) (Homo sapiens, UniProt P08581); assay: c-MET Kinase Assay (ADP production, pyruvate kinase/lactate dehydrogenase coupled); type: biochemical; conditions: read-out: cMET Enzyme Assay
T4 construct: purchased Invitrogen PV3143

[3] = target: T5, c-KIT kinase (Seq. ID no. 1) (Homo sapiens, UniProt P10721); assay: c-KIT kinase Assay (ADP production, pyruvate kinase/lactate dehydrogenase coupled); type: biochemical; conditions: read-out: cKIT Enzyme Assay
T5 construct: purchased ProQinase
Description: In this assay, the oxidation of NADH (thus the decrease at A340 nm) was continuously monitored spectrophometrically. […] The absorption at 340 nm was monitored continuously for 0.5 hours at 30° C. on Polarstar Optima plate reader (BMG). The reaction rate was calculated using the 0 to 0.5 h time frame. Percent inhibition was obtained by comparison of reaction rate with that of a control (i.e. with no test compound). IC50 values were calculated from a series of percent inhibition values determined at a range of inhibitor concentrations using software routines as implemented in the GraphPad Prism software package.

EBC-1 cells = assay: EBC-1 Cell Proliferation Assay (resazurin); type: cell-based; conditions: 67 h + 5 h resazurin, read-out: EBC1 Cell Proliferation
Description: EBC-1 cells (catalog #JCRB0820) were obtained from the Japan Health Science Research Resources Bank, Osaka, Japan. Briefly, cells were grown in DMEM supplemented with 10% characterized fetal bovine serum (Invitrogen, Carlsbad, Calif.) at 37 degrees Celsius, 5% CO2, 95% humidity. Cells were allowed to expand until reaching 70-95% confluency at which point they were subcultured or harvested for assay use.
EBC-1 Cell Proliferation Assay
as §1, with “a 96-well” for “a 384-well”, “N.Y.). For each cell line, five” for “N.Y.). Two”, “thousand” for “thousand five hundred”, “in 200” for “in 50”, “CO2,” for “CO2, and”

Mo-7e pKIT = target: T6, Mo-7e pKIT (Homo sapiens, UniProt P10721); assay: Mo-7e pKIT cellular assay; type: cell-based; conditions: Mo-7e cells
T6 construct: endogenous in cells; host or cells: Mo-7e

phospho-VEGF R2 = target: T7, phospho-VEGF R2 (Homo sapiens, UniProt P35968); assay: HUVEC VEGF/KDR ELISA (phospho-VEGF R2 after VEGF stimulation); type: cell-based; conditions: 4 h compound, 100 ng/mL VEGF 5 min, read-out: HUVEC pKDR
T7 construct: host or cells: HUVEC
Description: HUVEC (Human umbilical vein endothelial cell) cells were obtained from Lonza (Lonza, Walkersville, Md.). Briefly, cells were grown in EGM-2 (Lonza, Walkersville, Md.) at 37 degrees Celsius, 5% CO2, 95% humidity. Cells were allowed to expand until reaching 90-95% saturation at which point they were subcultured or harvested for assay use. For assay use, cells were harvested and grown in EGM-2 medium supplemented with 2% FBS (Lonza, Walkersville, Md.).
Twenty-five thousand cells were added per well in a 96-well black clear bottom plate (Corning, Corning, N.Y.). Cells were then incubated overnight at 37 degrees Celsius, 5% CO2, 95% humidity. A serial dilution of test compound was dispensed into another 96-well black clear bottom plate (Corning, Corning, N.Y.) containing EBM-2 supplemented with 2% FBS. Compound was added to plates containing cells and incubated for 4 hours at 37 degrees Celsius, 5% CO2, 95% humidity. Cells were stimulated with 100 ng/mL VEGF (R&D Systems, Minneapolis, Minn.) for 5 minutes, then lysed. Cell lysates were used to detect phospho-VEGF R2 using DuoSet IC HUVEC VEGF/KDR ELISA (R&D Systems, Minneapolis, Minn.). Data was analyzed using Prism software (Graphpad, San Diego, Calif.) to calculate IC50's.

Sequence of KDR kinase (Seq ID No. 3) (P35968 with tags, fused parts or gaps DEL940-989/E990V): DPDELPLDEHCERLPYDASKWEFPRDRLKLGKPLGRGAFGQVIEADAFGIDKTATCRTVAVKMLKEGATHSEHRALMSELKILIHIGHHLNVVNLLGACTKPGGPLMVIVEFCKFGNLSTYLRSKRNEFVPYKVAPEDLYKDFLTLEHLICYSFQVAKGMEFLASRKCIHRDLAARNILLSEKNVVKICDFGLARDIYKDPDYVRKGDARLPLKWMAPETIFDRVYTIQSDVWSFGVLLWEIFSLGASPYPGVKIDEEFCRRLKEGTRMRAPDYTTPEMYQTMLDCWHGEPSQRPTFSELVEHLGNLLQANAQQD
T1 sequence (P09619 33-1106): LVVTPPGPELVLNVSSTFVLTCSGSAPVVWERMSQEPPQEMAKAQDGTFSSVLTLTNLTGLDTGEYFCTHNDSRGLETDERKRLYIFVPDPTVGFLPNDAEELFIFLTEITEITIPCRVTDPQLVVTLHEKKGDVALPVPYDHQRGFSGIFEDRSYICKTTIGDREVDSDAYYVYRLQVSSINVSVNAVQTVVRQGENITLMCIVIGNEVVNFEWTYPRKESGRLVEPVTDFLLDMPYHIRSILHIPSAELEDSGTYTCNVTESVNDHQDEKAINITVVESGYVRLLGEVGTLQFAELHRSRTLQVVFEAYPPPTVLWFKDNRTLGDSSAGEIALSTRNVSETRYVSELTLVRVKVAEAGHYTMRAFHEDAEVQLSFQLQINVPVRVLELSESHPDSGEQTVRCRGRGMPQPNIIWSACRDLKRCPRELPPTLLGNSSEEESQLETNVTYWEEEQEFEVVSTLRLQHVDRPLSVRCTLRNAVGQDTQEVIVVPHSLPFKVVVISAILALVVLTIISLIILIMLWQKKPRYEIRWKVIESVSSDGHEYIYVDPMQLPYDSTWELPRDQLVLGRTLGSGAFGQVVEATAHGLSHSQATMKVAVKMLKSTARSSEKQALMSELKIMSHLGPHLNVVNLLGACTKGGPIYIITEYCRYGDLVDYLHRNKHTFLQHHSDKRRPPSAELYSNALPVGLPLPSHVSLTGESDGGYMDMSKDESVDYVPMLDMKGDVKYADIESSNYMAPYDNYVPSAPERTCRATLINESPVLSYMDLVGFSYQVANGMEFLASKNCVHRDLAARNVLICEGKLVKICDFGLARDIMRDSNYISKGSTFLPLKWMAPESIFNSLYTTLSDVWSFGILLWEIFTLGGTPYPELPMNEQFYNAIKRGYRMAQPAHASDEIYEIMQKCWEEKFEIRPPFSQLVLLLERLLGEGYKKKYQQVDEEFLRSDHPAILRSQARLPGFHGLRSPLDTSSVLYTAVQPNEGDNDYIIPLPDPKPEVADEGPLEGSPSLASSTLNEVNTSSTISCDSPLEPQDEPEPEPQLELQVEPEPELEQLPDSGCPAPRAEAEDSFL
T5 sequence (P10721 with tags, fused parts or gaps): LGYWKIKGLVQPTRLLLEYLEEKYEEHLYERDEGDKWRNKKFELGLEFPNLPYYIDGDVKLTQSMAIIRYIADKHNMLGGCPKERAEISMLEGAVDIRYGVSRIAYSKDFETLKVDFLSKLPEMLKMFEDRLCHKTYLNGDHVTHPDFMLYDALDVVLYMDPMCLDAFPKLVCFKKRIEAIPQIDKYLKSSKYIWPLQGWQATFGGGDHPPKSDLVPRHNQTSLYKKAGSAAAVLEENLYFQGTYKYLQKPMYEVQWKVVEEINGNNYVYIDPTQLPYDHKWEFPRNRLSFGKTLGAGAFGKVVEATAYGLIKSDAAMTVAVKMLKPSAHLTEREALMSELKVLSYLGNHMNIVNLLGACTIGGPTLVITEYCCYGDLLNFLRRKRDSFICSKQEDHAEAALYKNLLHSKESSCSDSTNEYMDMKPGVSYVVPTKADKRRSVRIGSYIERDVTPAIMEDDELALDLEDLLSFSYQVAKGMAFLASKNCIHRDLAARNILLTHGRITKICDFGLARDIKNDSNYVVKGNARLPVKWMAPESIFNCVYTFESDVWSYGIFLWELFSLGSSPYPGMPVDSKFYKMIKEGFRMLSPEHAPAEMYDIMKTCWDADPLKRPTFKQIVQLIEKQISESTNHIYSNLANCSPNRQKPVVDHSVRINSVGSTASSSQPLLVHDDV
T2 sequence (P16234 24-1089): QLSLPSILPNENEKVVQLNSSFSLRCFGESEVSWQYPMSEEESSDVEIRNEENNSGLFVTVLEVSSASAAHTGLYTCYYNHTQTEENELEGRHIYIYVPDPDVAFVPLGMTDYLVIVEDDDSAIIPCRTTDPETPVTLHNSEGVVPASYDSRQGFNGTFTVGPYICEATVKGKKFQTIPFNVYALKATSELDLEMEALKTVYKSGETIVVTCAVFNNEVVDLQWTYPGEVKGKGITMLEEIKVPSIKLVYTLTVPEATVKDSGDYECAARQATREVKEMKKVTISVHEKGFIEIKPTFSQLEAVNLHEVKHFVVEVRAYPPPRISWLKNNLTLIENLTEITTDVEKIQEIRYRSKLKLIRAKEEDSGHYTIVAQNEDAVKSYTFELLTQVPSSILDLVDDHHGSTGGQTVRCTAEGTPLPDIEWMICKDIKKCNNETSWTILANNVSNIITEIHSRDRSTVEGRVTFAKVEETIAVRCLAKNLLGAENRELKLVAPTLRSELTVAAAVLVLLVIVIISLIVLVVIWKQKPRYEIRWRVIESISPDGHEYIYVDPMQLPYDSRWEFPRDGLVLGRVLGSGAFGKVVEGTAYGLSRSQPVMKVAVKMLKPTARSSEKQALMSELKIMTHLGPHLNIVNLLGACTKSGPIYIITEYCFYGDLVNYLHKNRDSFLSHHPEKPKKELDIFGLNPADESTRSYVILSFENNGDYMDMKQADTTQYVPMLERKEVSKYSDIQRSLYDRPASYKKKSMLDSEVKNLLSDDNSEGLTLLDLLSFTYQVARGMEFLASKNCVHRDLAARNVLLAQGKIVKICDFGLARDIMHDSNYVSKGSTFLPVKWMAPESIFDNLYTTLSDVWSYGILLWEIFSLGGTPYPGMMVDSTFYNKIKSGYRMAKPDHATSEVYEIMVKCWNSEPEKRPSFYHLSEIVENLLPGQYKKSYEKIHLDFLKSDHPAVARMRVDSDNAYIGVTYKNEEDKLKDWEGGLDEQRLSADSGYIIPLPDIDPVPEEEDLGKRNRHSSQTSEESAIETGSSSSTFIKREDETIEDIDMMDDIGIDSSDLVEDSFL
T4 sequence (P08581 with tags, fused parts or gaps): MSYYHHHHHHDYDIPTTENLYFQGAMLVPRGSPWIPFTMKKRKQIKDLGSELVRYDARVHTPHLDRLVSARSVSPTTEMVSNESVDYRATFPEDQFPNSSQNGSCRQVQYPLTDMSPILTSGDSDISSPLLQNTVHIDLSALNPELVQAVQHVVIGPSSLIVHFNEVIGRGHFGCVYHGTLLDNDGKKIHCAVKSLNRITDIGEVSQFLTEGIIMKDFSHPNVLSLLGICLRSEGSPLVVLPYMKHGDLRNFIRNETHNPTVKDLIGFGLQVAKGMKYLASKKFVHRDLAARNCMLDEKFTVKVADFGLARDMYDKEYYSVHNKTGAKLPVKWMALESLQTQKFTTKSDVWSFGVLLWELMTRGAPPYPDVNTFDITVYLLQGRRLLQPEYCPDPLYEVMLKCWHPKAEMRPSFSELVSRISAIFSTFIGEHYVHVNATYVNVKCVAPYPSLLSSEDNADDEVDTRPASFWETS
T6 sequence (P10721 26-976): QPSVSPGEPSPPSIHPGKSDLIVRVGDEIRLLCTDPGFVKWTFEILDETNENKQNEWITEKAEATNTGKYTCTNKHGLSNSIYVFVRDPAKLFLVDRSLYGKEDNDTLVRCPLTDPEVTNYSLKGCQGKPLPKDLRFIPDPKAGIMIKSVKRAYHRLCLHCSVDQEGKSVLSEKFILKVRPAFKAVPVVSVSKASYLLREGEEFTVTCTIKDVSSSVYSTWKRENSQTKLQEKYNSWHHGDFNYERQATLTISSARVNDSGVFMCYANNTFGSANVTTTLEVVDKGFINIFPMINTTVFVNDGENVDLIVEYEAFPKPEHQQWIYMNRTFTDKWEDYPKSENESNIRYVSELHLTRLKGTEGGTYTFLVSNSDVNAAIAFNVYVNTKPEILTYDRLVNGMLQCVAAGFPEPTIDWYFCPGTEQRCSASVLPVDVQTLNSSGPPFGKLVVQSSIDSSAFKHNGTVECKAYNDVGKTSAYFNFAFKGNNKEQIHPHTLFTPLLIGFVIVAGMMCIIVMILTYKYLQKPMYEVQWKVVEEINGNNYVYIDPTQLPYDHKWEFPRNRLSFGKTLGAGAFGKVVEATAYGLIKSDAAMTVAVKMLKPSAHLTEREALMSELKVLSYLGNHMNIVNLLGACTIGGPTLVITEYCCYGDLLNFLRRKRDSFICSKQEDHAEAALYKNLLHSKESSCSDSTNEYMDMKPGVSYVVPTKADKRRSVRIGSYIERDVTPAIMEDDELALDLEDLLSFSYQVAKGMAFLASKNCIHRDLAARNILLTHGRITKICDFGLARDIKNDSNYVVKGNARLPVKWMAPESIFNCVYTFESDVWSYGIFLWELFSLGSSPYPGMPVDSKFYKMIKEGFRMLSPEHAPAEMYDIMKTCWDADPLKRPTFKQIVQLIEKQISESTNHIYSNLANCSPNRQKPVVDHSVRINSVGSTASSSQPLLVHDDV

| Molecule | IC50 (PDGFRβ) | IC50 (M-NFS-60 cells) | IC50 [1] | IC50 (PDGFRα kinase) | IC50 (FMS kinase) | IC50 [2] | IC50 [3] | IC50 (EBC-1 cells; Homo sapiens) | IC50 (Mo-7e pKIT) | IC50 (phospho-VEGF R2) | IC50 (EBC-1 cells) |
| --- | --- | --- | --- | --- | --- | --- | --- | --- | --- | --- | --- |
| Cn1cc(-c2cc(Oc3ccc(NC(=O)C4(C(=O)Nc5ccc(F)cc5)CC4)nc3)ccn2)cn1 [Example 41, N-(4-fluorophenyl)-N′-(5-(2-(1-methyl-1,4-pyrazol-4-yl)pyridin-4-yloxy)pyridin-2-yl)cyclopropane-1,1-dicarboxamide] | < 10000 nM | < 10000 nM | < 2000 nM | < 2000 nM | < 200 nM | < 2000 nM | < 2000 nM |  |  |  |  |
| Cn1cc(-c2cc(Oc3cc(F)c(NC(=O)C4(C(=O)Nc5ccccc5)CC4)cc3F)ccn2)cn1 [Example 45, N-(2,5-difluoro-4-(2-(1-methyl-1H-pyrazol-4-yl)pyridin-4-yloxy)phenyl)-N′-phenylcyclopropane-1,1-dicarboxamide] | < 10000 nM |  | < 2000 nM | < 10000 nM |  | < 200 nM | < 200 nM | < 200 nM | < 200 nM |  |  |
| N-(2,5-difluoro-4-(2-(1-methyl-1H-pyrazol-4-yl)pyridin-4-yloxy)phenyl)-N-(4-fluorophenyl)cyclopropane-1,1-dicarboxamide [Example 40] | < 10000 nM |  | < 200 nM | < 2000 nM |  | < 200 nM | < 200 nM |  |  | < 2000 nM | < 200 nM |
| Cn1cc(-c2cc(Oc3ccc(NC(=O)C4(C(=O)Nc5ccc(F)cc5)CC4)c(F)c3)ccn2)cn1 [Example 7, N-(2-fluoro-4-(2-(1-methyl-1H-pyrazol-4-yl)pyridin-4-yloxy)phenyl)-N′-(4-fluorophenyl)cyclopropane-1,1-dicarboxamide] | < 10000 nM |  | < 2000 nM | < 2000 nM | < 200 nM |  | < 10000 nM | < 200 nM |  | < 2000 nM |  |
| Cn1cc(-c2cc(Oc3cc(F)c(NC(=O)NC(=O)Cc4ccc(F)cc4)cc3F)ccn2)cn1 [Example 42, 1-(2,5-difluoro-4-(2-(1-methyl-1H-pyrazol-4-yl)pyridin-4-yloxy)phenyl)-3-(2-(4-fluorophenyl)acetyl)urea] | < 10000 nM |  | < 10000 nM | < 200 nM |  | < 200 nM | < 200 nM | < 200 nM | < 2000 nM |  |  |
